Laboratory results published in patent publication US20200069592A1, “HSP90 INHIBITOR ORAL FORMULATIONS AND RELATED METHODS” (Samus Therapeutics, Inc., priority 2017, published 2020).

Tests used:
[1] = Particle size distribution (Cilas 1180) of as-received and jet milled API (Example 8); assay type: physicochemical
Experimental: Compound 2 API ‘as-received’ (Lots #2064-118-8, #2064-146-9, and # BPR-WS 1828-194D(2HCl)—B1-19) were analyzed for PSD on a Cilas 1180 particle size analyzer. Subsequently jet milled API batches B # L0441-20-JM51mmP1, B # L0441-20-JM51mmP2, B # L0441-20-JM51mmP3, and B # L0441-84-JM146mmP1 were also analyzed for PSD Approximately 50 mg Compound 2-2HCl was dispersed into 40 mL 0.2% (w/w) span 80 in n-hexanes (dispersant) and allowed to mix for 60 minutes. API was kept suspended in dispersant via stirring and sonication during test.
A jet milling study was performed on a batch of Compound 2 2HCl with jet mill Fluid Energy Asset #00170 outfitted with a 51 mm collection loop. Batches B # L0441-29-JM51mmP1, B # L0441-29-JM51mmP2, and B # L0441-29-JM51mmP3 were created from ˜10 g of Compound 2 lot # BPR-WS1828-194D(2HCl)-B1-19 subjected to 3 passes. Jet mill settings for grinder nozzle and pusher nozzle as follows: Pass 1 grinder nozzle=60 psi & pusher nozzle=80 psi, Pass 2 and 3 grinder nozzle=50 psi & pusher nozzle=70 psi.
After successfully jet milling on the R&D scale, B # L0441-84-JM146mmP1 was created from Compound 2-2HCl lot # BPR-17-87-B1-21d which was processed with a single pass to confirm GMP scale up conditions in the R&D laboratory by passing 85 g through the GMP jet mill Jet-O-Mizer Asset #01 16 Model 0101 outfitted with 146 mm collection loop using a standard nylon 4×48-inch collection sock inside a PTFE 4×48-inch sock to minimize fines loss. The pressure settings for the grinder and pusher nozzle were: Grinder nozzle 60 psi, Pusher nozzle 70 psi.

[2] = Plasma pharmacokinetics after single oral dose in ORA-Plus or SyrSpend SF (Example 6), LC-MS/MS; assay type: in vivo, Sprague Dawley rats; details: for AUC % Extrap / Cl_F / Vz_F / AUC(0-inf) / AUC(0-t) / Cmax / Tmax / half-life: rat plasma; for % AUC0-last test vs reference: rats, ratio of group averages; for AUC(0-inf) / AUC(0-t) / Cmax / Tmax / half-life: female, rat, plasma, po
[3] = Solubility of the 2HCl salt in dosing vehicle (Example 6); assay type: physicochemical; details: SyrSpend SF Solution (dosing vehicle), aqueous with cosolvent or surfactant or cyclodextrin; pH ~2.5
From the text: Dose levels of Compound 2 were based on the free base, not the salt. […] Dosage forms of Compound 2 2HCl in ORA-Plus® and in SyrSpend® SF Cherry appeared to be suspension instead of clear solutions. Final physical appearance matched that of the vehicle used. Due to opaque properties of vehicles, full solubility could not be confirmed. However, resultant dosing material appeared homogenous. Dosage forms of Compound 2 2HCl in ORA-Plus® and in SyrSpend® SF Cherry were made fresh immediately prior to use.

[4] = Lot 2064-118-8, API as received
[5] = Lot 2064-146-9, API as received
[6] = Lot BPR-17-87-B1-21d, API as received
[7] = Lot BPR-17-87-B1-21d, jet milled batch B#L0441-84-JM146mmP1
[8] = Lot BPR-WS1828-194D(2HCL)-B1-19, API as received
[9] = Lot BPR-WS1828-194D(2HCL)-B1-19, jet milled batch B#L0441-20-JM51mmP1
[10] = Lot BPR-WS1828-194D(2HCL)-B1-19, jet milled batch B#L0441-20-JM51mmP2
[11] = Lot BPR-WS1828-194D(2HCL)-B1-19, jet milled batch B#L0441-20-JM51mmP3
[12] = G3: 2HCl, 24 mg/kg single oral dose, ORA-plus
[13] = G4: 2HCl, 48 mg/kg single oral dose, ORA-plus
[14] = G9: 2HCl, 24 mg/kg single oral dose, SyrSpend
[15] = G10: 2HCl, 48 mg/kg single oral dose, SyrSpend, n = 2
[16] = G11: 2HCl, 60 mg/kg single oral dose, SyrSpend, n = 4
[17] = Sprague Dawley, 24 mg/kg, G3: 2HCl, 24 mg/kg single oral dose, ORA-plus
[18] = Sprague Dawley, 24 mg/kg, G9: 2HCl, 24 mg/kg single oral dose, SyrSpend
[19] = Sprague-Dawley, 24 mg/kg, G9: 2HCl, 24 mg/kg single oral dose, SyrSpend
[20] = Sprague-Dawley, 48 mg/kg, G4: 2HCl, 48 mg/kg single oral dose, ORA-plus
[21] = Sprague-Dawley, 48 mg/kg, G10: 2HCl, 48 mg/kg single oral dose, SyrSpend
[22] = Sprague-Dawley, 60 mg/kg, G11: 2HCl, 60 mg/kg single oral dose, SyrSpend

Question: For `CC(C)(C)CNCCn1c(Sc2cc3c(cc2I)OCO3)nc2c(N)ncnc21` [Compound 2 2HCl], which “Particle size distribution d10” value [1, 4] is on record?
Answer: 12.0 μm

Question: And the “Particle size distribution d50” value [1, 4]?
Answer: 42.8 μm

Question: What about the “Particle size distribution d90” value [1, 4] of the same molecule?
Answer: 131.6 μm

Question: And the “Particle size distribution d10” value [1, 5]?
Answer: 8.4 μm

Question: What about the “Particle size distribution d50” value [1, 5] of the same molecule?
Answer: 23.0 μm

Question: What about the “Particle size distribution d90” value [1, 5] of the same molecule?
Answer: 57.7 μm

Question: What about the “Particle size distribution d10” value [1, 6] of the same molecule?
Answer: 11.6 μm

Question: What about the “Particle size distribution d50” value [1, 6] of the same molecule?
Answer: 35.7 μm

Question: What about the “Particle size distribution d90” value [1, 6] of the same molecule?
Answer: 98.3 μm

Question: What about the “Particle size distribution d10” value [1, 7] of the same molecule?
Answer: 1.9 μm

Question: What about the “Particle size distribution d50” value [1, 7] of the same molecule?
Answer: 3.9 μm

Question: What about the “Particle size distribution d90” value [1, 7] of the same molecule?
Answer: 8.0 μm

Question: What about the “Particle size distribution d10” value [1, 8] of the same molecule?
Answer: 11.0 μm

Question: What about the “Particle size distribution d50” value [1, 8] of the same molecule?
Answer: 33.1 μm

Question: And the “Particle size distribution d90” value [1, 8]?
Answer: 83.0 μm

Question: What about the “Particle size distribution d10” value [1, 9] of the same molecule?
Answer: 3.1 μm

Question: What about the “Particle size distribution d50” value [1, 9] of the same molecule?
Answer: 7.9 μm

Question: What about the “Particle size distribution d90” value [1, 9] of the same molecule?
Answer: 17.3 μm

Question: What about the “Particle size distribution d10” value [1, 10] of the same molecule?
Answer: 2.3 μm

Question: What about the “Particle size distribution d50” value [1, 10] of the same molecule?
Answer: 5.6 μm

Question: And the “Particle size distribution d90” value [1, 10]?
Answer: 11.7 μm

Question: And the “Particle size distribution d10” value [1, 11]?
Answer: 2.0 μm

Question: And the “Particle size distribution d50” value [1, 11]?
Answer: 4.8 μm

Question: What about the “Particle size distribution d90” value [1, 11] of the same molecule?
Answer: 10.1 μm

Question: And the “AUC % Extrap” value [2, 12]?
Answer: 4.00 ± 1.84%

Question: What about the Cl_F [2, 12] of the same molecule?
Answer: 357.3 ± 155 mL/min/kg

Question: What about the Vz_F [2, 12] of the same molecule?
Answer: 81.00 ± 80.22 L/kg

Question: What about the “AUC % Extrap” value [2, 13] of the same molecule?
Answer: 1.32 ± 2.64%

Question: What about the Cl_F [2, 13] of the same molecule?
Answer: 154 ± 76.5 mL/min/kg

Question: What about the Vz_F [2, 13] of the same molecule?
Answer: 28.42 ± 13.10 L/kg

Question: And the “AUC % Extrap” value [2, 14]?
Answer: 4.72 ± 4.49%

Question: And the Cl_F [2, 14]?
Answer: 405.8 ± 204.3 mL/min/kg

Question: What about the Vz_F [2, 14] of the same molecule?
Answer: 129.96 ± 81.45 L/kg

Question: And the “AUC % Extrap” value [2, 15]?
Answer: 2.05 ± 0.35 %

Question: What about the Cl_F [2, 15] of the same molecule?
Answer: 124 ± 23 mL/min/kg

Question: What about the Vz_F [2, 15] of the same molecule?
Answer: 45.95 ± 8.11 L/kg

Question: What about the “AUC % Extrap” value [2, 16] of the same molecule?
Answer: 0.68 ± 0.89 %

Question: And the Cl_F [2, 16]?
Answer: 219.2 ± 72.5 mL/min/kg

Question: What about the Vz_F [2, 16] of the same molecule?
Answer: 55.47 ± 25.73 L/kg

Question: And the “% AUC0-last test vs reference” value ([2]; Group 3 (24 mg/kg 2HCl ORA-plus) vs Group 9 (24 mg/kg 2HCl SyrSpend))?
Answer: 109.55%

Question: What about the “% AUC0-last test vs reference” value ([2]; Group 4 (48 mg/kg 2HCl ORA-plus) vs Group 10 (48 mg/kg 2HCl SyrSpend)) of the same molecule?
Answer: 73.71%

Question: What about the “% AUC0-last test vs reference” value ([2]; Group 9 (24 mg/kg 2HCl SyrSpend) vs Group 10 (48 mg/kg 2HCl SyrSpend)) of the same molecule?
Answer: 13.71%

Question: And the “% AUC0-last test vs reference” value ([2]; Group 9 (24 mg/kg 2HCl SyrSpend) vs Group 11 (60 mg/kg 2HCl SyrSpend))?
Answer: 24.05%

Question: And the “% AUC0-last test vs reference” value ([2]; Group 10 (48 mg/kg 2HCl SyrSpend) vs Group 11 (60 mg/kg 2HCl SyrSpend))?
Answer: 175.45%

Question: What about the AUC(0-inf) [2, 17] of the same molecule?
Answer: 1340 ± 678 ng·h/mL

Question: And the AUC(0-t) [2, 17]?
Answer: 1290 ± 666 ng·h/mL

Question: And the Cmax [2, 17]?
Answer: 407 ± 278 ng/mL

Question: What about the Tmax [2, 17] of the same molecule?
Answer: 1.6 ± 0.55 h

Question: And the half-life [2, 17]?
Answer: 2.34 ± 1.76 h

Question: And the AUC(0-inf) [2, 18]?
Answer: 1240 ± 717 ng·h/mL

Question: What about the AUC(0-t) [2, 18] of the same molecule?
Answer: 1180 ± 688 ng·h/mL

Question: And the AUC(0-t) ([2]; Sprague Dawley, 48 mg/kg, G10: 2HCl, 48 mg/kg single oral dose, SyrSpend)?
Answer: 8580 ± 2220 ng·h/mL

Question: And the AUC(0-inf) ([2]; Sprague Dawley, 48 mg/kg, G10: 2HCl, 48 mg/kg single oral dose, SyrSpend, n = 2)?
Answer: 6560 ± 1220 ng·h/mL

Question: And the AUC(0-t) ([2]; Sprague Dawley, 60 mg/kg, G11: 2HCl, 60 mg/kg single oral dose, SyrSpend)?
Answer: 4890 ± 1310 ng·h/mL

Question: What about the AUC(0-inf) ([2]; Sprague Dawley, 60 mg/kg, G11: 2HCl, 60 mg/kg single oral dose, SyrSpend, n = 4) of the same molecule?
Answer: 4950 ± 1780 ng·h/mL

Question: And the Cmax [2, 19]?
Answer: 270 ± 184 ng/mL

Question: What about the Tmax [2, 19] of the same molecule?
Answer: 1.2 ± 0.45 h

Question: And the half-life [2, 19]?
Answer: 3.41 ± 1.24 h

Question: And the AUC(0-inf) [2, 20]?
Answer: 6370 ± 3170 ng·h/mL

Question: What about the AUC(0-t) [2, 20] of the same molecule?
Answer: 6320 ± 3210 ng·h/mL

Question: And the Cmax [2, 20]?
Answer: 1120 ± 429 ng/mL

Question: And the Tmax [2, 20]?
Answer: 2.2 ± 1.1 h

Question: What about the half-life [2, 20] of the same molecule?
Answer: 2.18 ± 0.35 h

Question: What about the Cmax [2, 21] of the same molecule?
Answer: 1140 ± 311 ng/mL

Question: And the Tmax [2, 21]?
Answer: 4 ± 1.41 h

Question: What about the half-life ([2]; Sprague-Dawley, 48 mg/kg, G10: 2HCl, 48 mg/kg single oral dose, SyrSpend, n = 2) of the same molecule?
Answer: 4.28 ± 0.04 h

Question: What about the Cmax [2, 22] of the same molecule?
Answer: 825 ± 247 ng/mL

Question: What about the Tmax [2, 22] of the same molecule?
Answer: 2.6 ± 1.34 h

Question: And the half-life ([2]; Sprague-Dawley, 60 mg/kg, G11: 2HCl, 60 mg/kg single oral dose, SyrSpend, n = 4)?
Answer: 2.84 ± 0.83 h

Question: What about the solubility [3] of the same molecule?
Answer: 20 to 25 mg/mL
